Experimental findings from patent US12624050B2, “Three fused ring derivative-containing salt or crystal form and pharmaceutical composition thereof” (Shanghai Hansoh Biomedical Co., Ltd., priority 2019, dated 2026) are described below.

One data set has as its system SD rats. The data set can be described thus: Toxicity test of a 7-day repeatedly intragastric administration in SD rats. As to conditions: 7 days; for tolerance compared with GDC-0077: SD rats, 10, 30 and 60 mg/kg once/day. The format is in vivo. The text has this:
(§1) • Test compound 1: GDC-0077 • Test compound 2: the compounds of Example 22 and Example 62 3.2.2 Vehicle • Name: 20% aqueousSBE-β-CD (Captisol) solution 3.2.3 Animal Information • Species & strains: Sprague-Dawley (SD) rat • Animal grade: SPF grade • Number and sex of animals: 160 rats, half male and half female. 3.2.4 Instruments • The ADVIA®2120 series Hematology System with Autoslide was used for blood cell counting; • The SYSMEX CA-500 Coagulation Analyzer was used for the detection of coagulation function indicators; • The TBA-120FR Automated Biochemical Analyzer was used for the detection of blood biochemical indicators; • The Easylyte Electrolyte Analyzer was used for the detection of electrolytes; • The liquid mass spectrometry detector model API4000; • The electron spray ionization (ESI) positive ion mode and column type Agilent ZORBAX XDB-C18 (3.5 μm, 2.1×50 mm) were used for bioanalytical detection of plasma samples. 3.3 Experimental Method • 1) In the experiment, 160 rats (80 rats/sex) were divided into 20 groups according to their sex and body weight, wherein 100 rats were used for toxicology study (groups 1 to 10, 5 rats/sex/group) and 60 rats were used for toxicokinetic study (groups 11 to 20, 3 rats/sex/group); • 2) As the vehicle control group, the animals in groups 1 and 11 were intragastrically administered 20% aqueous SBE-β-CD (Captisol) solution; • 3) The animals in groups 2 and 12, groups 3 and 13, and groups 4 and 14 were intragastrically administered 10, 30 and 60 mg/kg of GDC-0077, respectively; • 4) The animals in groups 5 and 15, groups 6 and 16, and groups 7 and 17 were intragastrically administered 10, 30 and 60 mg/kg of the compound of Example 22, respectively; • 5) The animals in groups 8 and 18, groups 9 and 19, groups 10 and 20 were intragastrically administered 10, 30 and 60 mg/kg of the compound of Example 62, respectively; • 5) The animals were administered once a day for 7 consecutive days (the animals in groups 7, 17, 10 and 20 were administered for 6 consecutive days). • 6) The administration volume was 10 mL/kg. • 7) During the experiment, items such as clinical observation, body weight, food intake, clinicopathological indicators (blood cell count, coagulation function, blood biochemistry), toxicokinetics and the like were studied. • 8) All animals were euthanized on Day 8 (the animals in groups 7, 10, 17 and 20 were euthanized after administration on Day 6). • 9) During the experiment, gross anatomical observation was performed on the animals in groups 1 to 10, animals in groups 17 and 20, and dead animals (including animals in toxicological study). Histopathological examination was performed on abnormal tissues, gastrointestinal tissues (such as colon, cecum) and immune tissues (such as thymus). […]

Data set [1] in a line: Toxicokinetics in the 7-day repeated intragastric administration study in SD rats. The format is in vivo, Sprague-Dawley (SD) rat.
From the text: as §1

The next data set has as its target T1, PI3Kα (Homo sapiens, UniProt P42336).
T1 construct: purchased Promega #V1721
Description: ADP-Glo Lipid Kinase Assay, PI3Kα kinase activity. The format is biochemical. On the procedure: In this experiment, ADP-Glo Lipid Kinase Assay (Promega #V9102) from Promega was used. The lipid kinases PI3Kα/β/γ/δ catalyzed the ATP-to-ADP reaction in the presence of the substrate PIP2:3PS and ATP. The lipid kinase activity was characterized by measuring the ADP content in the reaction, and the half inhibition concentrations IC50 of the compounds on PI3Kα/β/γ/δ kinase activity were obtained.
Kinase reactions were carried out in white 384-well plates (Perkin Elmer #6007299). 2 μL of the compound of various concentrations diluted with ddH2O containing 1% DMSO was added to each well, and 2 μL of ddH2O containing 1% DMSO was added to positive control wells. […] After the reaction was carried out for 20 minutes at room temperature in the dark, the chemiluminescence was measured by BioTek Synergy H1 microplate reader.
The percentage inhibition data of the compound-treated well was calculated from positive control wells (DMSO control wells) and negative control wells (no kinase added) on the plate {% inhibition=100−[(test compound value−negative control value)]/(positive control value-negative control value)×100}. IC50 values were calculated using GraphPad prism and using a four-parameter nonlinear logistic formula to fit the data of different concentrations and corresponding percent inhibition.

Data set [2] is described as follows: Pharmacokinetic (PK) assay in mice, single intragastric administration. The format is in vivo. The conditions noted are these: mouse, po, Balb/c male mice, 5 mg/kg, plasma; for AUC(0-t): read-out: Area under the curve AUC0-t; for AUC(0-inf): read-out: Area under the curve AUC0-∞; for half-life: read-out: Half life t1/2 (converted); for MRT: read-out: Mean residence time MRT; for Tmax: read-out: Peak time tmax; for Cmax: read-out: Plasma concentration Cmax. As to the method:
The pharmacokinetic assay of the preferred compounds of the examples of the present invention in mice was carried out in Balb/c male mice (Shanghai Jiesijie Laboratory Animal Co., Ltd.).
5.1 Administration route: single intragastric administration.
5.2 Administration dose: 5 mg/10 ml/kg (body weight).
5.3 Formulation: the compound was dissolved in 0.5% CMC-Na by ultrasound to obtain a clear solution or a homogeneous suspension.
5.4 Sampling points: 0.5, 1, 2, 4, 6, 8 and 24 hours after administration.
• 1) 0.1 mL of orbital blood was collected and placed in a K2-EDTA test tube, centrifuged at 1000 to 3000×g at room temperature for 5 to 20 min to separate the plasma, which was then stored at −80° C. • 2) 160 uL of acetonitrile was added to 40 uL of plasma sample for precipitation. After mixing, the sample was centrifuged at 500 to 2000×g for 5 to 20 minutes. • 3) 100 uL of the supernatant after processing was taken and analyzed by LC/MS/MS assay to determine the concentrations of the example compound. 5.6 LC-MS/MS Assay: • Liquid chromatography condition: Shimadzu LC-20AD pump • Mass spectrometry condition: AB Sciex API 4000 mass spectrometer • Chromatographic column: phenomenex Gemiu 5 μm C18 50×4.6 mm • Mobile phase: solution A was 0.1% aqueous formic acid solution, and solution B was acetonitrile • Flow rate: 0.8 mL/min • Elution time: 0 to 4 minutes, gradient elution 5.7 Pharmacokinetics: […]

Setting [3] is: doses of 10, 30 and 60 mg/kg once/day.

T1 sequence (P42336 whole entry): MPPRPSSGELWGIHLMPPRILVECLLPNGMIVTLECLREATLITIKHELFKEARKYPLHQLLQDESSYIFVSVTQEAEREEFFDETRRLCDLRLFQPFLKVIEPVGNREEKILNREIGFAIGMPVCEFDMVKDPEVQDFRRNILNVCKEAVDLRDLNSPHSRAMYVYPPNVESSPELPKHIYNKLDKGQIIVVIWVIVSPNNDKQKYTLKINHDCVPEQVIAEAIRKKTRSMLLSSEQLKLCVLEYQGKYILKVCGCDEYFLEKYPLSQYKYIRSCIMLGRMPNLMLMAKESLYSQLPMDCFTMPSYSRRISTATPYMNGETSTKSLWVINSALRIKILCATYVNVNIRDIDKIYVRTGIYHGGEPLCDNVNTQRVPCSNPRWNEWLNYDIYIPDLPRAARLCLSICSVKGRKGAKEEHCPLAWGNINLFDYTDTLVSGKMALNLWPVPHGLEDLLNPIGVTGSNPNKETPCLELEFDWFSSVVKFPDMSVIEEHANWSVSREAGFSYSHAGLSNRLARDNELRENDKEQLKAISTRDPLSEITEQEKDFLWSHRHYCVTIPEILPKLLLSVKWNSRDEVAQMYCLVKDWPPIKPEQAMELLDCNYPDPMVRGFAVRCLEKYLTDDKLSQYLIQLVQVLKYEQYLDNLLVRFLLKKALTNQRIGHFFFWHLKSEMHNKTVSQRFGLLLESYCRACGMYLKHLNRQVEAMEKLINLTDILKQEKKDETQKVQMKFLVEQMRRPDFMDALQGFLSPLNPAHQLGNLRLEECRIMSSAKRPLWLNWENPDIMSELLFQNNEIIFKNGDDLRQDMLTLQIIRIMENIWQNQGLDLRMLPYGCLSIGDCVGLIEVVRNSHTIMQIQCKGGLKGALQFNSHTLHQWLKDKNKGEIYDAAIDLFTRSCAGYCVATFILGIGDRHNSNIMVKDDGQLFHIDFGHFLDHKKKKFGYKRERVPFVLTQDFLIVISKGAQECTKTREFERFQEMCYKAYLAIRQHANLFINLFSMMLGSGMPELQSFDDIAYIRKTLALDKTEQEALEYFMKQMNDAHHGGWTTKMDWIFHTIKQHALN
T1 sequence (P27986 whole entry partner): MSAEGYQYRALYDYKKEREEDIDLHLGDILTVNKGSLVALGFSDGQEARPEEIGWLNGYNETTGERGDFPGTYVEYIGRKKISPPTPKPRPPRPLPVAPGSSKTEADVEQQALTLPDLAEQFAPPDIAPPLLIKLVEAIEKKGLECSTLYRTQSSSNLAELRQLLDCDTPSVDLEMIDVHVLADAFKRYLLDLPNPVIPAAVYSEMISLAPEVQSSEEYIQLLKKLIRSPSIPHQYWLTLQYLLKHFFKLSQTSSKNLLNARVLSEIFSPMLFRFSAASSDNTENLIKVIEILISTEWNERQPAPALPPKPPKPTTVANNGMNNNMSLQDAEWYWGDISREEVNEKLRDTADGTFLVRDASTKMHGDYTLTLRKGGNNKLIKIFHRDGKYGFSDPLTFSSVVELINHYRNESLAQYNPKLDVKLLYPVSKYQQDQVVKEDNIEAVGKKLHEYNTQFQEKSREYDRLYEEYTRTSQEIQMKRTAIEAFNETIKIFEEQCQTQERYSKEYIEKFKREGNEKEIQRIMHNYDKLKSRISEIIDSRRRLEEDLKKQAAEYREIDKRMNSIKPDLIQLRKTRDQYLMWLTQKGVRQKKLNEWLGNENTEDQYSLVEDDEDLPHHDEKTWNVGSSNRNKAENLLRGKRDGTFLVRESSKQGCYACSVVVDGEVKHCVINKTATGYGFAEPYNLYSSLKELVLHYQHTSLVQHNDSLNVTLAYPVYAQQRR

With `C[C@H](Nc1ccc2c(c1)OCCn1cc(N3C(=O)SC[C@H]3C(F)F)nc1-2)C(N)=O` [Example 22, (S)-2-((2-((R)-4-(difluoromethyl)-2-oxothiazolidin-3-yl)-5,6-dihydrobenzo[f]imidazo[1,2-d][1,4]oxazepin-9-yl)amino)propionamide], the “tolerance compared with GDC-0077” value with SD rats was “better than that of GDC-0077”. The compound also gave a lethal dose with SD rats (SD rats, intragastric once/day) of 60 mg/kg. In addition, the “systemic exposure compared with GDC-0077 at the same dose” value in data set [1] is “significantly higher than that of GDC-0077”. Moreover, the “Cmax and AUC(0-24 h) compared with GDC-0077” value in data set [1] (dose of 30 mg/kg) and in data set [1] (setting [3]) was “significantly higher than those of GDC-0077” throughout.

`C[C@H](Nc1ccc2c(c1)SCCn1cc(N3C(=O)OC[C@H]3C(F)F)nc1-2)C(N)=O` [Example 62, (S)-2-((2-((S)-4-(difluoromethyl)-2-oxooxazolidin-3-yl)-5,6-dihydrobenzo[f]imidazo[1,2-d][1,4]thiazepin-9-yl)amino)propionamide]: in the data set on SD rats, the “tolerance compared with GDC-0077” value is listed as “better than that of GDC-0077”. For the same compound, the “Cmax and AUC(0-24 h) compared with GDC-0077” value in data set [1] (setting [3]) is “significantly higher than those of GDC-0077”. The IC50 at PI3Kα amounted to 0.1 nM. Moreover, in data set [2], the AUC(0-t) was 3440 ng·h/mL, the AUC(0-inf) was determined as 3470 ng·h/mL, the half-life was 1.5 h and the MRT amounted to 2.8 h. In addition, in data set [2], the Tmax amounted to 0.5 h and the Cmax came to 1250 ng/mL.

As to `C[C@H](Nc1ccc2c(c1)N(C)CCn1cc(N3C(=O)OC[C@H]3C(F)F)nc1-2)C(N)=O` [Example 56, (S)-2-((2-((S)-4-(difluoromethyl)-2-oxooxazolidin-3-yl)-7-methyl-6,7-dihydro-5H-benzo[f]imidazo[1,2-d][1,4]diazoheptin-9-yl)amino)propionamide], at PI3Kα, the IC50 amounted to 0.5 nM. In addition, in data set [2], the AUC(0-t) was 1350 ng·h/mL, the AUC(0-inf) turned out to be 1360 ng·h/mL, the half-life was 1.6 h and the MRT was determined as 2.2 h. Besides, in data set [2], the Tmax was determined as 0.5 h and the Cmax was found to be 985 ng/mL.
